Where a SMILES comes first, the peptide text is derived from it. Bridges are numbered along the chain shown (N, C = ends). [ ]: non-standard residue; d: D form. 2Nal = N[C@@H](Cc1ccc2ccccc2c1)C(=O)O; AEF = NCCOc1ccc(C[C@H](N)C(=O)O)cc1; 3Pal = N[C@@H](Cc1cccnc1)C(=O)O; Lys(Me) = CNCCCC[C@H](N)C(=O)O; αMeL = CC(C)C[C@](C)(N)C(=O)O; Orn = NCCC[C@H](N)C(=O)O; Dab = NCC[C@H](N)C(=O)O; βAla = NCCC(=O)O
How the values were obtained:
[1] = biological target: IL-23 mediated signalling (Homo sapiens, UniProt Q5VWK5); experiment: Functional inhibition of IL-23 mediated STAT3 signalling (phospho-STAT3 MSD) in DB cells; type: cell-based; conditions: Table 3-2, DB cells, hIL-23 at EC80; for Emax: maximal inhibitory response, read-out: hIL-23 (pSTAT3) antagonist % inhibition
Source text: Upon binding of IL-23, the IL-23R forms a heterodimer signalling complex together with IL-12R β1, which through the JAK2/STAT3 pathway promotes phosphorylation of STAT3 to form phospho-STAT3.
For compounds tested in this assay, the response was normalized relative to control values to calculate the IC50 and maximal inhibitory response from a concentration response curve of the compound in presence of a fixed concentration of human IL-23.
The assay procedure was as follows. […] Following preincubation of the DB cells with inhibitor for 15 min in a cell incubator (37 °C, 5% CO2), 20 µL of the prepared 3X the EC80 of hIL-23 solution was added to each well and incubated for 90 min in a cell incubator (37 °C, 5% CO2). For some wells buffer only or IL-23 only corresponding to the EC80 was added to obtain readouts needed for normalization. To terminate the assay, the plate was spun at 1000 G for 5 min to pellet cells, the supernatant removed using an 8-channel manual pipette, and then added 50 µL/well Complete Lysis Buffer from the MSD STAT3 kit (Cat# K150SVD, Mesoscale) to the cell pellet. To completely lyse cells to release phospho-STAT3 for detection, the plate was shaken for 10 min at room temperature (500 rpm) sealed with aluminium foil and placed at -80 °C for a minimum of 15 min. Detection of the phospho-STAT3 level in the cell lysate from the individual wells was determined using the MSD STAT3 kit (Cat# K150SVD, Mesoscale) and read on a Meso QuickPlex SQ 120 plate reader (Mesoscale).
For data analysis raw data counts from the Meso QuickPlex SQ 120 plate reader were normalized relative to the response by the EC80 of h1L-23 alone (no compound added) and the buffer level. Compound potency (IC50) and maximal inhibitory response (% inhibition) were estimated by computer-aided curve fitting using a 4-parameter logistic (4PL) nonlinear model. […] Table 3-2: hIL-23 (pSTAT3) antagonist IC50 and % inhibition

[2] = biological target: T1, human IL-23R (Homo sapiens, UniProt Q5VWK5); experiment: biochemical; conditions: for Emax: read-out: % displacement (hIL-23R NIuc)
T1 sequence (Q5VWK5 22-629): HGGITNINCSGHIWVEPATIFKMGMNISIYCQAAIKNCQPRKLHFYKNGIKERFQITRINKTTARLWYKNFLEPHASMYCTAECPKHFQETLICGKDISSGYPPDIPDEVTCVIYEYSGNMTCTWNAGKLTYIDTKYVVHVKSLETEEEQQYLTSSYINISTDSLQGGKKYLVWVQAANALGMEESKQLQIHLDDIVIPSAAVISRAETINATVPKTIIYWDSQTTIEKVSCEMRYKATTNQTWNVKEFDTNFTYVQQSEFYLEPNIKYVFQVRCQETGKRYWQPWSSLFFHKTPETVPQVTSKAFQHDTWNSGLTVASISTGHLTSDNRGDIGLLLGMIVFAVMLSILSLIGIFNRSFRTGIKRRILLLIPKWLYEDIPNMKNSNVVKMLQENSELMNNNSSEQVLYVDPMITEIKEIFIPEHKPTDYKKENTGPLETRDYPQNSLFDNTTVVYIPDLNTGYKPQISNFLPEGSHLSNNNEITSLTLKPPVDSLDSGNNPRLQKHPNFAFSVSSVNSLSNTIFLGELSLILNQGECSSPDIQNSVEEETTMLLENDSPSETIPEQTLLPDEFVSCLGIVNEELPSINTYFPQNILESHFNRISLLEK
Procedure, shortened: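 BRET displacement of a TAMRA-labelled reference compound from N-terminal Nanoluc-IL-23R fusion protein in membranes from stably transfected HEK293 cells. Incubation 2 h at room temperature, then Nanoluc substrate was added and the TAMRA/Nanoluc ratio read. IC50 and maximal displacement came from 4-parameter logistic fits.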

[3] = Peptide stability in simulated intestinal fluid (SIF); type: in vitro ADME; conditions: pig, 37 °C, porcine pancreatin; for remaining at 1 h, 10 µM: pH 6.8, 1 h; for remaining at 4 h, 10 µM: pH 6.8, 4 h, read-out: SIF (% remaining 4 h)
Procedure, shortened: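 Peptides were incubated at 37 °C with gentle shaking in pH 6.8 potassium phosphate SIF containing porcine pancreatin (10 g/L). Supernatants were analysed by LC-HRMS. Percent remaining at each timepoint, including 4 h, was calculated relative to time zero from absolute peak areas.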

[4] = Peptide stability in simulated gastric fluid (SGF); type: in vitro ADME; conditions: 37 °C, porcine pepsin; for remaining at 1 h, 10 µM / remaining at 4 h, 10 µM: pig, simulated gastric fluid (SGF) with porcine pepsin (3.2 g/L), pH 1.2, 10 µM; for remaining at 1 h, 10 µM: pH 1.2, 1 h, read-out: SGF (% remaining 1 h); for remaining at 4 h, 10 µM: read-out: SGF (% remaining 4 h)
Procedure, shortened: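 Peptide incubated at 37 °C with gentle shaking in SGF (NaCl, pH 1.2). Samples centrifuged, diluted and analysed by LC-HRMS; percent remaining at each timepoint from absolute peak areas relative to time zero, with 4 h as the reference point.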

Emax [1] | IC50 [2] | Emax [2] | IC50 ([1]; read-out: hIL-23 (pSTAT3) antagonist IC50) | % displacement (hIL-23R NIuc) [2] | Ki [2] | remaining at 1 h, 10 µM [3] | remaining at 4 h, 10 µM [3] | remaining at 1 h, 10 µM [4] | remaining at 4 h, 10 µM ([4]; pH 1.2, 4 h) | SGF (% remaining 4 h) ([4]; 10 µM, pH 1.2, 4 h) | Structure (SMILES)
97% | 290 pM | 100% | – | – | – | – | – | – | – | – | CNC(=O)[C@H](Cc1cccnc1)NC(=O)[C@H](CCN)NC(=O)[C@@H]1CCC(=O)NCCCC[C@@H]2NC(=O)CC[C@H](NC(=O)[C@H](CCC(N)=O)NC(=O)[C@H](Cc3c[nH]c4ccccc34)NC(=O)[C@H]([C@@H](C)O)NC2=O)C(=O)N[C@@H](Cc2ccc(OCCN)cc2)C(=O)N[C@@H](Cc2ccc3ccccc3c2)C(=O)N[C@@](C)(CC(C)C)C(=O)N1 [Compound 36, K(1c)(6c)^†TWQE(6c)[Y(2-aminoethoxy)][2-Nal][2-Me-Leu]E(1c)[Dab][3-(3-Pyridyl)-Ala]-[NHMe]] (KTWQE[AEF][2Nal][αMeL]E[Dab][3Pal]-NHMe; lactam 1-9, N-5)
99% | 2600 pM | – | 13000 pM | 102% | 2110 pM | – | – | – | – | – | CC(=O)N[C@H]1CCSC[C@@H](C(=O)N[C@@H](Cc2ccc(OCCN)cc2)C(=O)N[C@@H](Cc2c[nH]c3ccccc23)C(=O)N[C@@](C)(CCCCN)C(=O)N[C@@H](CCC(=O)O)C(=O)N[C@@H](CC(N)=O)C(=O)NCC(N)=O)NC(=O)[C@H](CCC(N)=O)NC(=O)[C@H](Cc2c[nH]c3ccccc23)NC(=O)[C@H]([C@@H](C)O)NC(=O)[C@H](CCC(N)=O)NC1=O [Compound C, [Ac]-[Abu](16i)QTWQC(16i)[Y(2-aminoethoxy)]W[2-Me-Lys]ENG-[NH2], reference compound]
– | 120 pM | 101% | – | – | – | 108% | 112% | 98% | 97% | – | CC[C@H](C)[C@@H]1NC(=O)[C@@H]2CCCCNC(=O)CC[C@@H](C(=O)N[C@@H](CCN)C(=O)NCCc3cccnc3)NC(=O)[C@](C)(CC(C)C)NC(=O)[C@H](Cc3ccc4ccccc4c3)NC(=O)[C@H](Cc3ccc(OCCN)cc3)NC(=O)[C@H](CCC(=O)N2)NC(=O)[C@H](CCC(N)=O)NC(=O)[C@H](Cc2c[nH]c3ccccc23)NC(=O)[C@H](C(C)C)NC1=O [Compound 66, K(1c)(6c)^†IVWQE(6c)[Y(2-aminoethoxy)][2-Nal][2-Me-Leu]E(1c)[Dab]-[NH-2-(pyridin-3-yl)ethyl]]
– | 500 pM | 101% | – | – | – | 106% | 89% | 100% | 106% | – | CNC(=O)[C@H](Cc1cccnc1)NC(=O)[C@H](CCN)NC(=O)[C@@H]1CCC(=O)N[C@H]2CCCCNC(=O)CC[C@H](NC(=O)[C@H](CCC(N)=O)NC(=O)[C@H](Cc3c[nH]c4ccccc34)NC(=O)CNC2=O)C(=O)N[C@@H](Cc2ccc(OCCN)cc2)C(=O)N[C@@H](Cc2ccc3ccccc3c2)C(=O)N[C@@](C)(CC(C)C)C(=O)N1 [Compound 104, [iso-Lys](1c)^†(6c)GWQE(6c)[Y(2-aminoethoxy)][2-Nal][2-Me-Leu]E(1c)[Dab][3-(3-Pyridyl)-Ala]-[NHMe]]
– | 350 pM | 100% | – | – | – | 98% | 57% | 116% | 115% | – | CNC(=O)[C@H](Cc1cccnc1)NC(=O)[C@H](CCN)NC(=O)[C@@H]1CCC(=O)NCCC[C@@H]2NC(=O)CC[C@H](NC(=O)[C@H](CCC(N)=O)NC(=O)[C@H](Cc3c[nH]c4ccccc34)NC(=O)CCNC2=O)C(=O)N[C@@H](Cc2ccc(OCCN)cc2)C(=O)N[C@@H](Cc2ccc3ccccc3c2)C(=O)N[C@@](C)(CC(C)C)C(=O)N1 [Compound 91, [Orn](1c)(6c)^†[3-Aminopropanoyl]WQE(6c)[Y(2-aminoethoxy)][2-Nal][2-Me-Leu]E(1c)[Dab][3-(3-Pyridyl)-Ala]-[NHMe]] ([Orn][βAla]WQE[AEF][2Nal][αMeL]E[Dab][3Pal]-NHMe; lactam 1-9, N-5)
– | – | 99% | – | – | – | 91% | 89% | 94% | 92% | – | CC[C@H](C)[C@@H]1NC(=O)[C@@H]2CCC(=O)N(C)CCCC[C@@H](C(=O)N[C@@H](CCN)C(=O)N[C@@H](Cc3cccnc3)C(=O)NC)NC(=O)[C@](C)(CC(C)C)NC(=O)[C@H](Cc3ccc4ccccc4c3)NC(=O)[C@H](Cc3ccc(OCCN)cc3)NC(=O)[C@H](CCC(=O)N2)NC(=O)[C@H](CCC(N)=O)NC(=O)[C@H](Cc2c[nH]c3ccccc23)NC(=O)[C@H](C(C)C)NC1=O [Compound 74, E(1c)(6c)^†IVWQE(6c)[Y(2-aminoethoxy)][2-Nal][2-Me-Leu][K(Me)](1 c)[Dab][3-(3-Pyridyl)-Ala]-[NHMe]] (EIVWQE[AEF][2Nal][αMeL][Lys(Me)][Dab][3Pal]-NHMe; lactam 1-10, N-6)
– | 380 pM | 101% | – | – | – | 94% | 86% | 106% | 97% | – | CNC(=O)[C@H](Cc1cccnc1)NC(=O)[C@H](CCN)NC(=O)[C@@H]1CCC(=O)NCCCC[C@@H]2NC(=O)CC[C@H](NC(=O)[C@H](CCC(N)=O)NC(=O)[C@H](Cc3c[nH]c4ccccc34)NC(=O)CCNC2=O)C(=O)N[C@@H](Cc2cccnc2)C(=O)N[C@@H](Cc2ccc3ccccc3c2)C(=O)N[C@@](C)(CC(C)C)C(=O)N1 [Compound 83, K(1c)(6c)^†[3-Aminopropanoyl]WQE(6c)[3-(3-Pyridyl)-Ala][2-Nal][2-Me-Leu]E(1c)[Dab][3-(3-Pyridyl)-Ala]-[NHMe]]
– | 56 pM | – | – | 103% | – | 101% | 78% | 100% | – | 99% | CNC(=O)[C@H](Cc1cccnc1)NC(=O)[C@H](CCN)NC(=O)[C@@H]1CCC(=O)NCCCC[C@@H]2NC(=O)CC[C@H](NC(=O)[C@H](CCC(N)=O)NC(=O)[C@H](Cc3c[nH]c4ccccc34)NC(=O)CCN(C)C2=O)C(=O)N[C@@H](Cc2ccc(OCCN)cc2)C(=O)N[C@@H](Cc2ccc3ccccc3c2)C(=O)N[C@@](C)(CC(C)C)C(=O)N1 [Compound 81, K(1c)(6c)^†[N-Me-3-Aminopropanoyl]WQE(6c)[Y(2-aminoethoxy)][2-Nal][2-Me-Leu]E(1c)[Dab][3-(3-Pyridyl)-Ala]-[NHMe]]
– | 72 pM | 99% | – | – | – | 111% | 87% | 105% | 108% | – | CC[C@H](C)[C@@H]1NC(=O)[C@@H]2CCCCNC(=O)CC[C@@H](C(=O)NC3(C(=O)N[C@@H](Cc4cccnc4)C(=O)NC)CCNCC3)NC(=O)[C@](C)(CC(C)C)NC(=O)[C@H](Cc3ccc4ccccc4c3)NC(=O)[C@H](Cc3ccc(OCCN)cc3)NC(=O)[C@H](CCC(=O)N2)NC(=O)[C@H](CCC(N)=O)NC(=O)[C@H](Cc2c[nH]c3ccccc23)NC(=O)[C@H](C(C)C)NC1=O [Compound 62, K(1c)(6c)^†IVWQE(6c)[Y(2-aminoethoxy)][2-Nal][2-Me-Leu]E(1c)[4-Aminopiperidin-4-carbonyl][3-(3-Pyridyl)-Ala]-[NHMe]]

Source: patent EP4471048A1, “PEPTIDE INHIBITORS OF INTERLEUKIN-23 RECEPTOR” (Zealand Pharma A/S, priority 2023, dated 2024)
